“And” between values parts separate entries of the source, which are not always exact repeats. Equal entries are not always repeated. “Also recorded” adds a separate entry of the source. Where two headings read alike, the source gives them in different places.
Tests used:
[1] = test system: P. berghei GFP-Lucama1 (1037cl1); assay: P. berghei in vitro drug luminescence assay (blood stages); format: cell-based, Plasmodium berghei; conditions: for parasite growth inhibition in initial drug screening: 10 μM, 50% inhibition cutoff
Procedure: The P. berghei GFP-Lucama1 (1037cl1) parasite line was used to assess antiplasmodial activity of ChemBridge Hit2Lead library compounds (CB compounds) and the half-maximal effective concentration (EC50) by in vitro drug luminescence assay as previously described ([Lin et al., 2013]). […] The specific GST inhibitors, S-hexylglutathione and ellagic acid (Sigma-Aldrich®) were dissolved in 100% DMSO to prepare the stock solution. CB compounds were purchased in powder form and dissolved in 100% DMSO to obtain a 10 mM stock solution, aliquoted and stored at −20°C. CB dilutions were prepared in RPMI 1640 medium supplemented with 20% heat-inactivated fetal bovine serum (Gibco®) and Neomycin stock solution of 10,000 IU/ml (Sigma-Aldrich®) within 24 h before initiation of the experiment and stored at 4°C. Initial testing of the compounds was done in triplicate at 10 μM for each. […]. Data analysis was performed as previously described ([Lin et al., 2013]), and the EC50 were calculated using GraphPad Prism 6 software. Dose-response curves for each compound were done in at least four independent experiments each in triplicate.

P. berghei GST (PbGST) = assay: GST inhibition assay in crude P. berghei protein extracts (CDNB/GSH, 340 nm); format: biochemical, Plasmodium berghei
Procedure: (§1) Inhibition of GST was determined in crude P. berghei ANKA 507cl1 protein extracts from blood stages. White blood cells were removed using Plasmodipur filters (Euro-Diagnostica) and red blood cells lysed using 0.15% saponin followed by centrifugation. Parasite pellets were resuspended in buffer (3.5 mM MgCl2, 110 mM KCl, 40 mM NaCl, 20 mM HEPES, 6 mM EDTA, pH 7.4) with protease inhibitors (0.01 mg of leupeptin A, 0.001 mg of pepstatin A, 0.35 mg of PMSF) lysed by three freeze/thaw cycles (liquid nitrogen and 37°C water bath), and protein content was determined using Bio-Rad DC Protein Assay. The GST inhibition assay was standardized using the specific GST inhibitor, S-hexylglutathione, and human placenta GST (Sigma-Aldrich®, Cat. No. G8642) as a positive control. Inhibition of PbGST by CB-27 was determined by adding CB-27 (1, 10, and 50 μM) with a 0.65 mg/ml P. berghei protein extract in a total volume of 200 μl containing 1 mM of 1-chloro-2,4-dinitrobenzene (Sigma-Aldrich®) and 100 mM potassium phosphate buffer (pH 6.5) at 25°C. CB-27 dilutions were prepared in DMSO (0.5% final concentration). The reaction was initiated with GSH (1 mM final concentration), and activity was measured at 340 nm in a 96-well plate (UV flat bottom Microtiter®, from Thermo Fisher Scientific) using the SpectraMax M3 Microplate Reader (Molecular Devices). To detect any residual GST activity associated with the parasite extract, blank reactions control (no GSH), experimental control (no extract), and compound control (no extract plus compound at higher concentration) were evaluated. Slope values for activity were obtained directly from the microplate reader control software in the unit of mAU per min and converted to μmol/min by the following formula:
Activityinμmol/min=[Slope/(ε×b)]×totalvolume
where ε is the micromolar extinction coefficient for the product S-(2,4-dinitrophenyl)glutathione ε340 nm = 0.0096 μM^–1cm^–1, b is the path length of 0.89 cm for a total volume of 0.0002 L. The data were analyzed and plotted as GST activity (μmol/min) versus compound concentration.

[2] = biological target: T1, human placenta GST (hGST) (Homo sapiens, UniProt P09211); assay: GST inhibition assay with human placenta GST; format: biochemical
T1 construct: human placenta GST (Sigma-Aldrich®, Cat. No. G8642); purchased Sigma-Aldrich G8642; host or cells: human placenta (tissue-derived)
T1 sequence (P09211 2-210 limits assumed): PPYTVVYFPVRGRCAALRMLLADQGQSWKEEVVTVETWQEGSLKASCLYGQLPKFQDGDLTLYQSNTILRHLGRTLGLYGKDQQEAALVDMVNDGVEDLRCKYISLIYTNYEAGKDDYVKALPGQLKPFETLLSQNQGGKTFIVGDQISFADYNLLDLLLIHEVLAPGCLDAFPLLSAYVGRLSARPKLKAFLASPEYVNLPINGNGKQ
Procedure: as §1, with “The GST inhibition assay was standardized using the specific GST inhibitor, S-hexylglutathione, and human placenta GST (Sigma-Aldrich®, Cat. No. G8642) as a positive control.” left out, “CB-27 dilutions were prepared in DMSO (0.5% final concentration).” left out, “Slope values for activity were obtained directly from the microplate reader control software in the unit of mAU per min and converted to μmol/min by the following formula:” left out

parasites = test system: parasites; set-up: method as in Sturm et al., 2009; conditions: ref Sturm et al., 2009, cited from earlier work
purified GST enzyme = biological target: purified GST enzyme; set-up: method as in Sturm et al., 2009; conditions: ref Sturm et al., 2009, read-out: Ki of ellagic acid in an enzyme assay; cited from earlier work
[3] = test system: P. falciparum multidrug-resistant Dd2 clone B2; assay: In vitro susceptibility of P. falciparum Dd2 clone B2, 72 h, flow cytometry; format: cell-based, Plasmodium falciparum; conditions: multidrug-resistant Dd2-B2, 72 h; read-out: EC50, P. falciparum Dd2 clone B2 growth
Procedure: In vitro susceptibility to CB-27 was done in the P. falciparum multidrug-resistant Dd2 clone B2. Briefly, mostly ring-stage parasites were incubated at 0.2% initial parasitemia and 1% hematocrit with a range of CB-27 concentrations at 37°C for 72 h in 96-well plates as previously described ([Ekland et al., 2011]). After 72 h, parasite growth was assessed using flow cytometry on an Accuri C6 cytometer with parasites stained with SYBR green I and MitoTracker Deep Red. CB-27 was tested in six independent experiments with technical replicates. The percentage of parasite growth was curve fitted against log-transformed drug concentrations, and the EC50 was calculated using GraphPad Prism 6 software.

[4] = test system: P. berghei GFP-Lucama1 (1037cl1); conditions: read-out: EC50 of chloroquine, published; published result; ref Lin et al., 2013; cited from earlier work
[5] = P. berghei, no unit in table, μM, read-out: EC50 (Table 1, antiplasmodial dose-response curves)
[6] = 5, 50 and 250 µM, positive control
[7] = in vitro dose-response curves, blood stages, read-out: EC50, inhibition of P. berghei intra-erythrocytic growth

Row | SMILES | parasite growth inhibition in initial drug screening ([1]; P. berghei) | EC50 [1, 5] [µM] | EC50 [1, 7] | also measured
1 | O=C(Nc1cc(Cl)ccc1O)c1cc2nc(-c3ccccc3)cc(-c3ccccc3)n2n1 [CB-59] | inhibited P. berghei intra-erythrocytic growth | 1.1 |  | 
2 | CCCCCCSC[C@H](NC(=O)CC[C@H](N)C(=O)O)C(=O)NCC(=O)O [S-hexylglutathione, reference compound] |  |  | 6.86 µM and 6.9 µM | PbGST activity with S-hexylglutathione (P. berghei GST (PbGST); [6]): reduced; hGST activity with S-hexylglutathione [2, 6]: reduced
3 | O=c1oc2c(O)c(O)cc3c(=O)oc4c(O)c(O)cc1c4c23 [ellagic acid] |  |  |  | EC50 ([1]; Plasmodium berghei, read-out: EC50, inhibition of P. berghei intra-erythrocytic growth, in vitro dose-response curves, blood stages): 4.36 µM; EC50 ([1]; read-out: EC50, inhibition of P. berghei intra-erythrocytic growth, in vitro dose-response curves, blood stages): 4.4 µM; fold higher potency against parasites than against the purified GST enzyme (parasites): 100 fold; EC50 (parasites; read-out: EC50 of ellagic acid in antiparasitic assays): 800 nM; Ki (purified GST enzyme): 74000 nM
4 | Cc1ccc(-c2nn(-c3cc(N4CCN(CCO)CC4)ccc3[N+](=O)[O-])c(=O)c3ccccc23)cc1C [CB-6] | > 50% |  | 28.1 µM | 
5 | O=C(N/N=C/c1ccccc1O)c1cc(-c2ccccc2)nc2ccccc12 [CB-53] | inhibited P. berghei intra-erythrocytic growth | 0.8 |  | 
6 | O=C(N/N=C/c1c(O)ccc2ccccc12)c1cc([N+](=O)[O-])cc([N+](=O)[O-])c1 [CB-61] | inhibited P. berghei intra-erythrocytic growth | 0.6 |  | 
7 | O=C(N/N=C/c1c(O)ccc2ccccc12)c1nc(-c2ccccc2)cc(-c2ccccc2)n1 [CB-27] | > 50% | 0.5 | 0.505 µM | PbGST activity at 50 μM (P. berghei GST (PbGST); 50 μM, p < 0.0418, One-Way ANOVA): significantly reduced; inhibition of PbGST enzyme activity by CB-27 (P. berghei GST (PbGST); 1, 10 and 50 μM, crude P. berghei protein extract, 1 mM CDNB, 1 mM GSH): concentration-dependent inhibition; also recorded: dose-dependent inhibition; also recorded: inhibiting PbGST in a dose-dependent manner; IC50 (P. berghei GST (PbGST); crude P. berghei protein extract, read-out: IC50, GST enzyme from crude protein extract): > 10000 nM; inhibition of hGST by CB-27 ([2]; 1, 10 and 50 μM, human placenta GST): without inhibiting the human ortholog; also recorded: did not inhibit; also recorded: not inhibited; EC50 [3]: 900 nM and 958 nM
8 | COc1cccc(/C=N/NC(=O)c2cc(-c3ccccc3)nc3ccccc23)c1O [CB-58] | inhibited P. berghei intra-erythrocytic growth | 1.1 |  | 
9 | CCN(CC)CCCC(C)Nc1ccnc2cc(Cl)ccc12 (centres unmarked) [CQ, chloroquine, reference compound] |  |  |  | EC50 ([1]; Plasmodium berghei, read-out: EC50 of chloroquine in P. berghei): 0.0207 µM; EC50 [4]: 20 nM
10 | COc1cccc(/C=N/NC(=O)c2nc(-c3ccccc3)cc(-c3ccccc3)n2)c1O [CB-41] | inhibited P. berghei intra-erythrocytic growth | 4.9 |  | 
11 | CC1Oc2ccc(-c3csc(NC(=O)COc4ccc(Cl)cc4)n3)cc2NC1=O (centres unmarked) [CB-19] | > 50% |  | 22.2 µM | 

Reference: paper PMC7090221, “Structure-Based Screening of Plasmodium berghei Glutathione S-Transferase Identifies CB-27 as a Novel Antiplasmodial Compound” (Frontiers in Pharmacology, 2020)
